Experimental data: patent US4797362A (priority 1985, dated 1989)
Like-named read-outs stand apart in the source and are kept apart here. Numbered stars: 1 amine (or outer) side, 2 acyl side, 3 side chain; on linkers, the order of the positions; unused ones are H or OH. Peptide text beside a SMILES is read from it. CO = O=C([*:1])[*:2]

Legend:
[1] = system: alkaline protease Yb (enzyme Yb) produced by Bacillus sp. Y (FERM BP-1029); type: biochemical; conditions: for Relative Activity Enzyme Yb: pH 7.2, 30 min
[2] = system: alkaline protease Ya (enzyme Ya) produced by Bacillus sp. Y (FERM BP-1029); type: biochemical; conditions: for Relative Activity Enzyme Ya: pH 7.2, 30 min

## CC(C)[C@H](NC(=O)[C@H](CCCNC(=N)N)NC(=O)N[C@@H](Cc1ccccc1)C(=O)O)C(=O)N[C@H](C=O)CCCNC(=N)N [Antipain] ({Phe-CO}-Arg-Val-Arg-aldehyde)
[1]
  Inhibition of enzyme Yb (in words): not inhibited
  Relative Activity Enzyme Yb: 87
[2]
  Inhibition of enzyme Ya (in words): not inhibited
  Relative Activity Enzyme Ya: 124

## O=C(O)CN(CCN(CC(=O)O)CC(=O)O)CC(=O)O [EDTA]
[1]
  Inhibition of enzyme Yb (in words): not inhibited
[1]; 5000 µM
  Relative Activity Enzyme Yb: 100
[2]
  Inhibition of enzyme Ya (in words): not inhibited
[2]; 5000 µM
  Relative Activity Enzyme Ya: 97

## O=C(O)c1cc[c]([Hg][Cl])cc1 [PCMB]
[1]
  Inhibition of enzyme Yb (in words): not inhibited
[1]; 1000 µM
  Relative Activity Enzyme Yb: 92
[2]
  Inhibition of enzyme Ya (in words): not inhibited
[2]; 1000 µM
  Relative Activity Enzyme Ya: 122

## O=S(=O)(F)Cc1ccccc1 [PMSF]
[1]
  Inhibition of enzyme Yb (in words): inhibited
[1]; 1000 µM
  Relative Activity Enzyme Yb: 1
[2]
  Inhibition of enzyme Ya (in words): inhibited
[2]; 1000 µM
  Relative Activity Enzyme Ya: 0

## NC(N)=O [Urea]
[1]
  Relative Activity Enzyme Yb: 82
[2]
  Relative Activity Enzyme Ya: 130

## Chymostatin
[1]
  Inhibition of enzyme Yb (in words): not inhibited
  Relative Activity Enzyme Yb: 75
[2]
  Inhibition of enzyme Ya (in words): not inhibited
  Relative Activity Enzyme Ya: 77
